Values of other authors in patent publication US11266662B2, “Ganaxolone for use in prophylaxis and treatment of postpartum depression” (Marinus Pharmaceuticals, Inc., priority 2018, dated 2022).

System: patients
Conditions: 60 μg and 90 μg brexanolone dose regimens, IV infusion; cited from earlier work

**Q.** For `CC(=O)[C@H]1CC[C@H]2[C@@H]3CC[C@H]4C[C@H](O)CC[C@]4(C)[C@H]3CC[C@]12C` [brexanolone], which “Patients with abrupt loss of consciousness, syncope or presyncope” value is on record?
**A.** Its value is “about 4%”.
